Assay results as given in paper PMC7414126 (Scientific Reports, 2020).
Values joined by “and” are separate entries in the source; they are usually repeats but may differ in a detail not shown here. Identical values can stand only once.

What was measured:
hH2R-Gsαs fusion protein = target: T1, hH2R-Gsαs fusion protein (Homo sapiens, UniProt P25021); test: Radioligand competition binding with [3H]UR-DE257 on Sf9 membranes; conditions: read-out: pKi (RL comp. binding Sf9 membranes) (converted)
T1 construct: made in house; host or cells: Sf9 insect cells (recombinant baculovirus), membrane preparation
T1 sequence (P25021+P63092 fused): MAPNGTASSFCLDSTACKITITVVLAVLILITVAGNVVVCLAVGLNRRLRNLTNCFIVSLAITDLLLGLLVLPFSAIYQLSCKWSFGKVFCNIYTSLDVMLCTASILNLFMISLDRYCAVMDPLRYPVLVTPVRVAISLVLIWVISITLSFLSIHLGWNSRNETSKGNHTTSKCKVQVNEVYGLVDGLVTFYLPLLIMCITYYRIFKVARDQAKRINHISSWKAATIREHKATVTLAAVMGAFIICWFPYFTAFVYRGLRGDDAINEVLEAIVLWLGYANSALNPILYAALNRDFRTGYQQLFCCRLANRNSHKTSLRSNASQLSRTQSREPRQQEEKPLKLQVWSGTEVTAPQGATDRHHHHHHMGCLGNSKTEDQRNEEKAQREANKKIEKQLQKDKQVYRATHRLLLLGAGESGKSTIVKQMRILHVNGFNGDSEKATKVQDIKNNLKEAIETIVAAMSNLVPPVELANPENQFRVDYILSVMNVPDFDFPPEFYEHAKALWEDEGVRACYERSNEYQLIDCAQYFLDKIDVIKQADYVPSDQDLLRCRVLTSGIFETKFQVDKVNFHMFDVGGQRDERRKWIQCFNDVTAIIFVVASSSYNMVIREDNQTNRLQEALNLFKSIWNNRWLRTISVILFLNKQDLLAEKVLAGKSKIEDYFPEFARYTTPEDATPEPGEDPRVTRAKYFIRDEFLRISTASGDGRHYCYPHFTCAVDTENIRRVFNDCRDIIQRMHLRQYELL
Procedure: All data analysis was performed using Prism 5.0c (GraphPad, San Diego, CA, USA).

NLuc-hH2R [1] = target: T2, NLuc-hH2R (Homo sapiens, UniProt P25021); test: NanoBRET saturation binding assay
T2 construct: membrane signal peptide of the murine 5HT3A receptor (N); expressed in transfected cells
T2 sequence (P25021 whole entry): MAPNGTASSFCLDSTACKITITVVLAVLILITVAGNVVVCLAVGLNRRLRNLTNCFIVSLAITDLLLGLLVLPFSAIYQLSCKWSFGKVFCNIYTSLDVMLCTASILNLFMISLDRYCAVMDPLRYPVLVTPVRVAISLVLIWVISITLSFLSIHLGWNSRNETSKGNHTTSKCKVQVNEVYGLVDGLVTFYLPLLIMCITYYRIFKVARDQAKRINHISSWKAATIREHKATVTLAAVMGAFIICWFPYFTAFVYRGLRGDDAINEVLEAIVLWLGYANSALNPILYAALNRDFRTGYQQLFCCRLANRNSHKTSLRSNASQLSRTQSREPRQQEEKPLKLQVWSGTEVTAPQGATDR
Procedure: KG, Wertheim, Germany). The cells were then incubated at 37 °C in a humidified atmosphere (no additional CO2) overnight. […] After 60 min incubation time at 27 °C, 10 μL of the substrate furimazine, which was diluted according to manufacturer's protocol beforehand, were added. After 5 min of equilibration time at 27 °C, the measurement was started. […] After addition of the diluted substrate, the plate was placed inside the reader for 5 min to equilibrate. […] Dissociation experiments were conducted in wells, which have been preincubated with 8 as described above for association experiments. […] All measurements were performed on a TECAN InfiniteLumi plate reader (TECAN, Grödig, Austria) at 27 °C using the Blue2 NB (460 nm ± 35 nm, bandpass) and the Red NB (> 610 nm, longpass) filter combination with an integration time of 100 ms. For the kinetic experiments, integration time was increased to 500 ms for both channels to reduce noise. BRET ratios were calculated by dividing the acceptor emission (red NB) by the donor luminescence (Blue2 NB). For all BRET binding experiments, specific binding was calculated by subtracting non-specific binding from total binding yielding the “corrected BRET ratio”. For saturation binding experiments, total and non-specific binding were fitted simultaneously using the “one-site total and nonspecific binding” fit. Specific binding was fitted accordingly applying the “one-site specific binding” fit. […] The normalized competition binding curves were then fitted with a four-parameter logistic fit yielding pIC50-values. These were transformed into pKi-values using the Cheng-Prusoff equation[38].

NLuc-hH2R [2] = target: T2, NLuc-hH2R; test: Real-time NanoBRET kinetic binding experiments
Procedure: The cell line stably expressing the NLuc-hH2R construct was detached from the cell culture dishes after reaching ~ 80% confluency by treatment with trypsin/EDTA (0.05%/0.2%, for 2 min at 37 °C) and was centrifuged (600×g, 5 min). The cell pellet was then resuspended in Leibovitz’ L-15 medium (L-15), supplemented with 5% FCS + 10 mM HEPES, and 1.0 × 10^5 cells/well were seeded in 70 µL (saturation and competition binding) or 80 µL (kinetic experiments) of assay medium into white 96-well cell-Grade™ plates (Brand GmbH & Co. KG, Wertheim, Germany). The cells were then incubated at 37 °C in a humidified atmosphere (no additional CO2) overnight. For saturation binding experiments, serial dilutions (tenfold concentrated) of the fluorescent ligands (8–10) and famotidine (4, 300-fold excess over the respective concentration of fluorescent ligand, non-specific binding) were prepared in dilution buffer (L-15 + 2% BSA + 10 mM HEPES). 10 µL of the fluorescent ligand dilution and 10 µL of L-15 (total binding) or the dilution of 4 (non-specific binding) were added to the cells. After 60 min incubation time at 27 °C, 10 µL of the substrate furimazine, which was diluted according to manufacturer’s protocol beforehand, were added. After 5 min of equilibration time at 27 °C, the measurement was started. Competition binding experiments were performed as described above using one fixed concentration of fluorescent ligand 8 (c = 50 nM) and varying concentrations of the competitors 1–4, 11, 12, that were added at the same time. Kinetic measurements were performed as follows: 10 µL of L-15 (for total binding) or 4 (300-fold excess, c = 15 µM, non-specific binding) were added to the cells. After addition of the diluted substrate, the plate was placed inside the reader for 5 min to equilibrate. To start association 50 µL of a threefold concentrated solution of the fluorescent ligand 8 (cfinal = 50 nM) were added to the adherent cells and the plate was measured for 60 min. Dissociation experiments were conducted in wells, which have been preincubated with 8 as described above for association experiments. To initiate dissociation, 50 µL of a fourfold concentrated solution of 4 (300-fold excess, cfinal = 15 µM) were added to the cells and the measurement was performed for 4 h. All measurements were performed on a TECAN InfiniteLumi plate reader (TECAN, Grödig, Austria) at 27 °C using the Blue2 NB (460 nm ± 35 nm, bandpass) and the Red NB (> 610 nm, longpass) filter combination with an integration time of 100 ms. For the kinetic experiments, integration time was increased to 500 ms for both channels to reduce noise. BRET ratios were calculated by dividing the acceptor emission (red NB) by the donor luminescence (Blue2 NB).
For kinetic experiments, association experiments were fitted with the “one-phase association” fit yielding kobs, whereas the dissociation experiments were fitted assuming a “one-phase decay” model resulting in koff. The association rate constant kon was calculated using the following equation: kon = (kobs − koff)/c(ligand); c(ligand) = 50 nM. Dissociation half-life t1/2 was calculated applying the following formula: t1/2 = ln(2)/koff.The kinetic equilibrium dissociation constant Kd(kin) was calculated as follows: Kd(kin) = koff/kon. The errors for kon, t1/2 and Kd(kin) were calculated according to the Gaussian law of error propagation. All experimental data were analyzed using Prism 8 software (GraphPad, San Diego, CA, USA).

Ki (hH2R-Gsαs fusion protein): 24 nM
Kd (NLuc-hH2R [1]; representative NanoBRET saturation isotherm, result from single experiment, HEK293T NLuc-hH2R, read-out: Kd* (single experiment)): 29.4 nM
Kd (NLuc-hH2R [1]; saturation binding, live HEK293T cells stably expressing NLuc-hH2R, mean ± SEM, read-out: pKd (NanoBRET) (converted)): 44.7 nM
Time to full association (fully bound to the receptor) (NLuc-hH2R [2]; 50 nM of 8): approximately 30 min
Amount of ligand displaced within 240 min (NLuc-hH2R [2]; 300-fold excess famotidine (15 µM), after 60 min preincubation with 50 nM 8): 35–40%
Kd (NLuc-hH2R [2]; Kd(kin) = koff/kon): 1.3 ± 0.16 nM
kobs (NLuc-hH2R [2]; association of 8, c = 50 nM, mean ± SEM, four experiments): 0.093 ± 0.009 min⁻¹
koff (NLuc-hH2R [2]; dissociation started with famotidine 15 µM after 60 min preincubation with 50 nM 8): 3.83e-05 s⁻¹
kon (NLuc-hH2R [2]; kon = (kobs − koff)/c(ligand), c = 50 nM, read-out: kon (association rate constant) (converted)): 30000 M⁻¹ s⁻¹
Dissociation half-life t1/2 (NLuc-hH2R [2]; t1/2 = ln(2)/koff): 5 h and 5.007 ± 0.3317 h
Structure (SMILES): Cc1cc(/C=C/c2cc3c4c(c2)CCCN4CCC3)cc(C)[n+]1CCCCNc1c(NCCCOc2cccc(CN3CCCCC3)c2)c(=O)c1=O [Compound 8, (E)-1-(4-((3,4-Dioxo-2-((3-(3-(piperidin-1-ylmethyl)phenoxy)propyl)amino)cyclobut-1-en-1-yl)amino)butyl)-2,6-dimethyl-4-(2-(2,3,6,7-tetrahydro-1H,5H-pyrido[3,2,1-ij]quinolin-9-yl)vinyl)pyridin-1-ium]
